A word on the IC50: it is the concentration that inhibits the measured activity by half.

The results in this text go back to US8415469B2, “Compounds and methods for kinase modulation, and indications therefor” (Plexxikon Inc., priority 2005, dated 2013).

SMILES strings stand for the structures.

One experiment deals with T1, B-Raf V600E (Homo sapiens, UniProt P15056, V600E).
T1 construct: P4254. pFastBacBD-CDC37 BRAF D437-K722-X, V600E; His6 with pFastBac HT leader (TEV site) (N); made in house; host or cells: Sf9 (baculovirus; chaperone CDC37 co-expressed)
Put plainly: AlphaScreen kinase assay, B-Raf V600E. It is filed as biochemical. To be noted: read-out: IC50, activity toward kinase B-Raf V600E.

The target of the next experiment is T2, FGFR1 (Homo sapiens, UniProt P11362, C488A/C584S).
T2 construct: P1351.pET N6 BI-PTP FGFR A458-E765-X C488A, C584S; made in house; host or cells: E. coli (PTP1B co-expressed)
Briefly: AlphaScreen kinase assay, FGFR1. It is filed as biochemical. To be noted: read-out: IC50, activity toward kinase FGFR. In general terms: In Alpha technology, singlet oxygen from a donor bead excites a nearby acceptor bead.

T2 sequence (P11362 458-765 C488A/C584S): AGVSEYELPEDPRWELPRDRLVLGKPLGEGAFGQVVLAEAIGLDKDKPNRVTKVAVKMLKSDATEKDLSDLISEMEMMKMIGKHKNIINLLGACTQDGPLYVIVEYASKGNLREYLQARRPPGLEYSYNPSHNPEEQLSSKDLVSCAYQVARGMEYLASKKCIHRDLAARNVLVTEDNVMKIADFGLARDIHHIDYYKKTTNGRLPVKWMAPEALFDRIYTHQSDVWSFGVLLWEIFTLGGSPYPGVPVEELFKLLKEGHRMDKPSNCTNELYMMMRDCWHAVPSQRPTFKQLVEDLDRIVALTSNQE
T1 sequence (P15056 with tags, fused parts or gaps V600E): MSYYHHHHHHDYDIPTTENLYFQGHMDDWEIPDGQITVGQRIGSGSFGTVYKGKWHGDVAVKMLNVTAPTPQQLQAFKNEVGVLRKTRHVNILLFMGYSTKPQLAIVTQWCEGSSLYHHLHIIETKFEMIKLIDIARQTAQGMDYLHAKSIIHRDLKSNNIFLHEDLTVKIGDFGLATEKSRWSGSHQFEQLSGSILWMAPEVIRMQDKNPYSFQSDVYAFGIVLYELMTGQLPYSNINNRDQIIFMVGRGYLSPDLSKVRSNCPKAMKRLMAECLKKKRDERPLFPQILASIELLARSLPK

In the case of `COC(=O)c1cccc(C#Cc2c[nH]c3ncc(-c4ccc(OC)c(OC)c4)cc23)c1` [Compound P-0646], the IC50 on B-Raf V600E is at most 10 µM.
Consider `CC(C)(C)OC(=O)Nc1ccc(Cl)c(C(O)c2c[nH]c3ncccc23)c1F` (centres unmarked) [Compound P-1140], for which the IC50 at B-Raf V600E is at most 10 µM.
Same read-out and setting: in the case of `CCCCN(c1ccc(F)c(Cc2c[nH]c3ncc(-c4cccnc4)cc23)c1F)S(=O)(=O)c1ccc(C(F)(F)F)cc1` [Compound P-1444] it was at most 10 µM; in that of `CC(C)Oc1cccc(Nc2cnc3[nH]ccc3c2)c1` [Compound P-1049], at most 10 µM.
For `Cc1ccc(Cc2c[nH]c3ncccc23)cc1C` [Compound P-0368], the IC50 at FGFR1 was at most 10 µM.
`COc1cnc2[nH]cc(C(=O)c3c(F)ccc(OCc4ccccc4)c3F)c2c1` [Compound P-1597, (3-Benzyloxy-2,6-difluoro-phenyl)-(5-methoxy-1H-pyrrolo[2,3-b]pyridin-3-yl)-methanone]: at FGFR1, the half-maximal inhibitory concentration (IC50) was at most 10 µM.
Take `FC(F)(F)c1cccc(-c2ccnc3[nH]cc(Sc4cccs4)c23)c1` [Compound P-0651]: on B-Raf V600E, the IC50 is at most 10 µM.
For `c1ccc(Cc2nc(-c3ccnc4[nH]ccc34)no2)cc1` [Compound P-0381], on B-Raf V600E, the IC50 is at most 10 µM.
As to `COCCOc1ccc(F)c(C(=O)c2c[nH]c3ncc(OC)cc23)c1F` [Compound P-1584, [2,6-Difluoro-3-(2-methoxy-ethoxy)-phenyl]-(5-methoxy-1H-pyrrolo[2,3-b]pyridin-3-yl)-methanone], at FGFR1, the IC50 is at most 10 µM.
Regarding `FC(F)(F)c1ccc(-c2c[nH]c3ncccc23)cc1` [Compound P-1179], at B-Raf V600E, the IC50 was at most 10 µM.
Consider `COc1cccc(Cc2c[nH]c3nccc(-c4cccc(OC)c4)c23)c1` [Compound P-0979], for which the IC50 at FGFR1 is at most 10 µM.
`O=C(c1ccc2ccccc2n1)c1c[nH]c2ncccc12` [Compound P-0479]: the IC50 at FGFR1 is at most 10 µM.
Consider `Cc1ccc(F)cc1C(=O)c1c[nH]c2ncc(Br)cc12` [Compound P-0424], for which the IC50 on FGFR1 was at most 10 µM.
As to `O=C(c1c(F)ccc(Cl)c1F)c1c[nH]c2ncccc12` [Compound P-1272], the IC50 at FGFR1 was at most 10 µM.
On to `O=C(c1cc([N+](=O)[O-])ccc1Cl)c1c[nH]c2ncccc12` [Compound P-0592], for which the IC50 on B-Raf V600E was at most 10 µM.
Take `CCC(C)Cc1c[nH]c2ncccc12` (centres unmarked) [Compound P-0386]: at B-Raf V600E, the IC50 is at most 10 µM.
As for `OCc1cccc(-c2ccnc3[nH]cc(Sc4ccc(Cl)cc4)c23)c1` [Compound P-0388], the half-inhibitory concentration (IC50) at B-Raf V600E was at most 10 µM.
As to `Fc1cccc(Nc2cnc3[nH]ccc3c2)c1` [Compound P-1035], the IC50 on B-Raf V600E is at most 10 µM.
With `COc1ccc(Cc2c[nH]c3ncc(Br)cc23)c(F)c1` [Compound P-1322], the IC50 on FGFR1 is at most 10 µM.
As for `c1cnc2[nH]cc(-c3noc(CCC4CCCC4)n3)c2c1` [Compound P-0833], the IC50 on B-Raf V600E was at most 10 µM.
Same read-out and setting: to `Cc1nc2ccc(Nc3cnc4[nH]ccc4c3)cc2s1` [Compound P-1030] belongs at most 10 µM.
As for `Cc1cc(Cc2c[nH]c3ncccc23)ccc1F` [Compound P-0510], the IC50 at FGFR1 is at most 10 µM.
With `c1ccc2cc(Cc3c[nH]c4ncccc34)ccc2c1` [Compound P-0575], the IC50 on FGFR1 is at most 10 µM.
In the case of `O=C(c1cccc(Cl)c1Cl)c1c[nH]c2ncc(Br)cc12` [Compound P-0294], the IC50 at FGFR1 is at most 10 µM.
In the case of `OC(c1cccc2c1OC(F)(F)O2)c1c[nH]c2ncc(Br)cc12` (centres unmarked) [Compound P-1512], the IC50 on FGFR1 was at most 10 µM.
As to `Fc1cc(F)cc(-c2ccnc3[nH]cc(Sc4ccccc4)c23)c1` [Compound P-0311], at B-Raf V600E, the IC50 was at most 10 µM.
In the case of `COc1ccccc1-c1c[nH]c2ncccc12` [Compound P-0358], at B-Raf V600E, the IC50 is at most 10 µM.
For the molecule `Cc1cc(-c2nc(-c3ccnc4[nH]ccc34)no2)n(C(C)(C)C)n1` [Compound P-0893], the IC50 at B-Raf V600E is at most 10 µM.
On to `COc1ccc(-c2c[nH]c3ncccc23)cc1OCc1ccccc1` [Compound P-0886], for which the IC50 on B-Raf V600E is at most 10 µM.
As to `CC(C)Nc1ccc(C(=O)c2c[nH]c3ncccc23)cn1` [Compound P-0227], the IC50 at FGFR1 was at most 10 µM.
Consider `O=C(Nc1ccc(Cc2c[nH]c3ncccc23)cc1)c1ccccc1` [Compound P-0803], for which the IC50 at B-Raf V600E was at most 10 µM.
As to `COC(c1ccc(N(Cc2ccc(Cl)cc2)C(=O)OC(C)(C)C)nc1)c1c[nH]c2ncccc12` (centres unmarked) [Compound P-1183], at B-Raf V600E, the IC50 was at most 10 µM.
For the molecule `Brc1ccc(Cc2c[nH]c3ncccc23)cc1` [Compound P-0615], the IC50 on FGFR1 was at most 10 µM.
Consider `c1cnc2[nH]cc(Cc3ccc(NCC4CC4)nc3)c2c1` [Compound P-0400], for which, at FGFR1, the IC50 was at most 10 µM.
With `CC(C)(C)c1ccc(Cc2c[nH]c3ncccc23)cc1` [Compound P-0828], on FGFR1, the IC50 was at most 10 µM.
`Oc1ccc(F)c(C(O)c2c[nH]c3ncc(Br)cc23)c1F` (centres unmarked) [Compound P-1180, 3-[(5-Bromo-1H-pyrrolo[2,3-b]pyridin-3-yl)-hydroxy-methyl]-2,4-difluoro-phenol]: the IC50 at B-Raf V600E was at most 10 µM.
The same measure, in the same setting: to `Cc1cc(C)cc(-c2ccnc3[nH]cc(Sc4cccs4)c23)c1` [Compound P-0255] belongs at most 10 µM.
Take `CCCNS(=O)(=O)c1ccc(NCC)c(C(=O)c2c[nH]c3ncccc23)c1F` [Compound P-1273]: at FGFR1, the IC50 was at most 10 µM.
As for `COCCOc1ccc(F)c(C(=O)c2c[nH]c3ncc(Br)cc23)c1F` [Compound P-1453, (5-Bromo-1H-pyrrolo[2,3-b]pyridin-3-yl)-[2,6-difluoro-3-(2-methoxy-ethoxy)-phenyl]-methanone], the IC50 at FGFR1 is at most 10 µM.
With `Fc1cc(F)cc(Cc2c[nH]c3ncccc23)c1` [Compound P-0374], on FGFR1, the IC50 was at most 10 µM.
As for `CCCS(=O)(=O)Nc1cccc(C(O)c2c[nH]c3ncc(Br)cc23)c1C` (centres unmarked) [Compound P-1607], the IC50 at B-Raf V600E was at most 10 µM.
As to `O=C(c1c(F)ccc(OCc2ccccc2)c1F)c1c[nH]c2ncc(-c3cccnc3)cc12` [Compound P-1467, (3-Benzyloxy-2,6-difluoro-phenyl)-(5-pyridin-3-yl-1H-pyrrolo[2,3-b]pyridin-3-yl)-methanone], the IC50 on FGFR1 is at most 10 µM.
As to `COc1cccc(C(=O)c2c[nH]c3ncc(-c4cc(F)cc(F)c4)cc23)c1` [Compound P-0474], the IC50 on FGFR1 was at most 10 µM.
With `Cn1ccc2cc(-c3c[nH]c4ncccc34)ccc21` [Compound P-0713], the IC50 at B-Raf V600E was at most 10 µM.
In the case of `O=C(c1cccc([N+](=O)[O-])c1)c1c[nH]c2ncccc12` [Compound P-0219], the IC50 on FGFR1 is at most 10 µM.
Consider `Fc1ccc(OCc2ccccc2)c(F)c1Cc1c[nH]c2ncc(-c3cccnc3)cc12` [Compound P-1455, 3-(3-Benzyloxy-2,6-difluoro-benzyl)-5-pyridin-3-yl-1H-pyrrolo[2,3-b]pyridine], for which the IC50 on FGFR1 was at most 10 µM.
As for `COc1cnc2[nH]cc(C(O)c3c(F)ccc(NS(=O)(=O)c4ccc(C(F)(F)F)cc4)c3F)c2c1` (centres unmarked) [Compound P-1540], the IC50 on B-Raf V600E was at most 10 µM.
On the same count and under the same terms, in the case of `CCC(C)c1ccc(Nc2cnc3[nH]ccc3c2)cc1` (centres unmarked) [Compound P-1128] it was at most 10 µM.
Still for that read-out and setting: to `COc1ccc(S(=O)(=O)Nc2ccc(F)c(C(=O)c3c[nH]c4ncccc34)c2F)cc1OC` [Compound P-1090, N-[2,4-Difluoro-3-(1H-pyrrolo[2,3-b]pyridine-3-carbonyl)-phenyl]-3,4-dimethoxy-benzenesulfonamide] belongs at most 10 µM; to `O=C(c1c(F)ccc(NS(=O)(=O)c2ccc(-c3cnco3)cc2)c1F)c1c[nH]c2ncc(Cl)cc12` [Compound P-1843, N-[3-(5-Chloro-1H-pyrrolo[2,3-b]pyridine-3-carbonyl)-2,4-difluoro-phenyl]-4-oxazol-5-yl-benzenesulfonamide], at most 10 µM; to `CC(C)(C)c1ccc(OCc2nc(-c3ccnc4[nH]ccc34)no2)cc1` [Compound P-1187], at most 10 µM.
Regarding `Fc1ccc(Nc2cnc3[nH]ccc3c2)cc1` [Compound P-1091], at B-Raf V600E, the IC50 was at most 10 µM.
For the molecule `CC(C)(C)OC(=O)Nc1ccc(-c2c[nH]c3ncccc23)cc1` [Compound P-1195], the IC50 at B-Raf V600E was at most 10 µM.
Regarding `OCc1cccc(-c2ccnc3[nH]cc(Sc4cc(Cl)cc(Cl)c4)c23)c1` [Compound P-0600], on B-Raf V600E, the IC50 is at most 10 µM.
As to `CN(C)S(=O)(=O)N(C)c1ccc(F)c(C(=O)c2c[nH]c3ncc(Cl)cc23)c1F` [Compound P-1666], the IC50 at B-Raf V600E was at most 10 µM.
With `O=C(c1c[nH]c2ncc(Br)cc12)c1cccc2c1ccn2S(=O)(=O)c1ccccc1` [Compound P-1524, (1-Benzenesulfonyl-1H-indol-4-yl)(5-bromo-1H-pyrrolo[2,3-b]pyridin-3-yl)-methanone], the IC50 at FGFR1 was at most 10 µM.
For `COc1ccc([N+](=O)[O-])cc1C(OC)c1c[nH]c2ncc(Br)cc12` (centres unmarked) [Compound P-1287], at FGFR1, the IC50 is at most 10 µM.
Turning to `COC(c1ccc(Br)cc1)c1c[nH]c2ncccc12` (centres unmarked) [Compound P-0552], on B-Raf V600E, the IC50 is at most 10 µM.
Consider `COc1ccc(OC)c(S(=O)(=O)Nc2ccc(F)c(C(=O)c3c[nH]c4ncccc34)c2F)c1` [Compound P-1131, N-[2,4-Difluoro-3-(1H-pyrrolo[2,3-b]pyridine-3-carbonyl)-phenyl]-2,5-dimethoxy-benzenesulfonamide], for which, on B-Raf V600E, the IC50 is at most 10 µM.
For the molecule `O=C(c1c(F)ccc([N+](=O)[O-])c1F)c1c[nH]c2ncc(Br)cc12` [Compound P-1182], on FGFR1, the IC50 was at most 10 µM.
`N#Cc1ccc(CCc2c[nH]c3ncccc23)cc1` [Compound P-1199]: the IC50 at B-Raf V600E was at most 10 µM.
Regarding `COc1cccc(Cc2c[nH]c3ncc(-c4ccc(C(=O)C(F)(F)F)[nH]4)cc23)c1` [Compound P-0309], at FGFR1, the IC50 is at most 10 µM.
As for `O=[N+]([O-])c1cccc(Sc2c[nH]c3nccc(-c4cc(F)cc(F)c4)c23)c1` [Compound P-0816], on B-Raf V600E, the IC50 was at most 10 µM.
In the case of `COc1ccc(Cc2nc(-c3ccnc4[nH]ccc34)no2)cc1` [Compound P-0696], at B-Raf V600E, the IC50 is at most 10 µM.
As for `Cn1nc(C(C)(C)C)cc1-c1nc(-c2c[nH]c3ncccc23)no1` [Compound P-1177], the IC50 on B-Raf V600E is at most 10 µM.
